Laboratory results taken from PMC9076072 (RSC Advances, 2019).

Test system: RAW 264.7 macrophages
Assay: Macrophage cytotoxicity seen in the anti-inflammatory assay

Row | Structure (SMILES) | Concentration at which macrophage cytotoxicity appeared [µM]
1 | C=C(C)[C@@H]1CC[C@]2(C(=O)O)CC[C@]3(C)[C@H](CC[C@@H]4[C@@]5(C)CC[C@H](O)C(C)(C)[C@@H]5CC[C@]43C)[C@@H]12 [Compound 1, Betulinic acid] | 20
2 | C[C@H]1[C@H](C)CC[C@]2(C(=O)O)CC[C@]3(C)C(=CC[C@@H]4[C@@]5(C)CC[C@H](O)C(C)(C)[C@@H]5CC[C@]43C)[C@H]12 [Compound 2, Ursolic acid] | 20
